Toxic doses and inconclusive results are not listed. No stated cut-off is given here; in the data, active means T/C of 150% or more; inactive means T/C below 125%.
Tested on: L1210 leukemia ip in BDF1 mice, survival T/C
Assay: NCI In Vivo Anticancer Drug Screen. Data for tumor model L1210 Leukemia (intraperitoneal) in B6D2F1 (BDF1) mice
Settings: endpoint: mean survival time, higher = longer survival
Outline: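 Tumor was transplanted into mice, which were then dosed with test compound or vehicle alone. Survival was recorded for each group, and the treated figure was expressed relative to the control figure.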

[1] = dose: 100.0 mg/kg/injection, schedule: Q04DX003 (ip), vehicle: saline
[2] = dose: 100.0 mg/kg/injection, schedule: Q04DX003 (ip), vehicle: Klucel (hydroxypropylcellulose) (HPC)
[3] = dose: 200.0 mg/kg/injection, schedule: Q04DX003 (ip), vehicle: Klucel (hydroxypropylcellulose) (HPC)
[4] = dose: 400.0 mg/kg/injection, schedule: Q04DX003 (ip), vehicle: Klucel (hydroxypropylcellulose) (HPC)
[5] = dose: 100.0 mg/kg/injection, schedule: Q01DX009 (ip), vehicle: Klucel (hydroxypropylcellulose) (HPC)
[6] = dose: 200.0 mg/kg/injection, schedule: Q01DX009 (ip), vehicle: Klucel (hydroxypropylcellulose) (HPC)
[7] = dose: 50.0 mg/kg/injection, schedule: Q01DX009 (ip), vehicle: saline with Tween-80
[8] = dose: 100.0 mg/kg/injection, schedule: Q01DX009 (ip), vehicle: saline with Tween-80
[9] = dose: 200.0 mg/kg/injection, schedule: Q01DX009 (ip), vehicle: saline with Tween-80
[10] = dose: 100.0 mg/kg/injection, schedule: Q04DX002 (ip), vehicle: Klucel (hydroxypropylcellulose) (HPC)
[11] = dose: 200.0 mg/kg/injection, schedule: Q04DX002 (ip), vehicle: Klucel (hydroxypropylcellulose) (HPC)
[12] = dose: 400.0 mg/kg/injection, schedule: Q04DX002 (ip), vehicle: Klucel (hydroxypropylcellulose) (HPC)
[13] = dose: 100.0 mg/kg/injection, schedule: Q01DX001 (ip), vehicle: Klucel (hydroxypropylcellulose) (HPC)
[14] = dose: 200.0 mg/kg/injection, schedule: Q01DX001 (ip), vehicle: Klucel (hydroxypropylcellulose) (HPC)
[15] = dose: 400.0 mg/kg/injection, schedule: Q01DX001 (ip), vehicle: Klucel (hydroxypropylcellulose) (HPC)
[16] = dose: 50.0 mg/kg/injection, schedule: Q01DX009 (ip), vehicle: Klucel (hydroxypropylcellulose) (HPC)

Measured: T/C

O=C(O)C1=CC2C=C(Cl)C=CC2OC1=O (stereo not given)
inactive: dose: 5.0 mg/kg/injection, schedule: Q01DX001 (ip), vehicle: saline 95 % of control | dose: 10.0 mg/kg/injection, schedule: Q01DX001 (ip), vehicle: saline 93 % of control | dose: 20.0 mg/kg/injection, schedule: Q01DX001 (ip), vehicle: saline 96 % of control | dose: 40.0 mg/kg/injection, schedule: Q01DX001 (ip), vehicle: saline 96 % of control | dose: 80.0 mg/kg/injection, schedule: Q01DX001 (ip), vehicle: saline 96 % of control | dose: 100.0 mg/kg/injection, schedule: Q01DX001 (ip), vehicle: saline 111 % of control | dose: 200.0 mg/kg/injection, schedule: Q01DX001 (ip), vehicle: saline 100 % of control

O=S(O)c1ncnc2nc[nH]c12
inactive: [1] 101 % of control | dose: 200.0 mg/kg/injection, schedule: Q04DX003 (ip), vehicle: saline 106 % of control | dose: 400.0 mg/kg/injection, schedule: Q04DX003 (ip), vehicle: saline 95 % of control

Nc1ccc2ncccc2c1 (tested in a mixture with another compound)
inactive: dose: 100.0 mg/kg/injection, schedule: Q04DX003 (ip), vehicle: gum acacia 100 % of control | dose: 200.0 mg/kg/injection, schedule: Q04DX003 (ip), vehicle: gum acacia 91 % of control | dose: 400.0 mg/kg/injection, schedule: Q04DX003 (ip), vehicle: gum acacia 100 % of control

c1ccc(Oc2ccccn2)cc1
inactive: dose: 50.0 mg/kg/injection, schedule: Q04DX003 (ip), vehicle: Klucel (hydroxypropylcellulose) (HPC) 91 % of control | [2] 94 % of control | [3] 94 % of control | [4] 97 % of control

Cc1ccc(C)c(NC(=O)c2ccccc2N)c1
inactive: [5] 98 % of control | [2] 104 % of control | [6] 93 % of control | [3] 97 % of control | dose: 400.0 mg/kg/injection, schedule: Q01DX009 (ip), vehicle: Klucel (hydroxypropylcellulose) (HPC) 93 % of control | [4] 92 % of control

CC(O)C#CC#CC(C)O (stereo not given)
inactive: dose: 12.5 mg/kg/injection, schedule: Q01DX009 (ip), vehicle: saline 103 % of control | dose: 12.5 mg/kg/injection, schedule: Q04DX002 (ip), vehicle: saline 113 % of control | dose: 25.0 mg/kg/injection, schedule: Q01DX009 (ip), vehicle: saline 109 % of control | dose: 25.0 mg/kg/injection, schedule: Q04DX002 (ip), vehicle: saline 109 % of control | dose: 50.0 mg/kg/injection, schedule: Q01DX009 (ip), vehicle: saline 101 % of control | dose: 50.0 mg/kg/injection, schedule: Q04DX002 (ip), vehicle: saline 94 % of control

COc1cc(CC(=O)NO)cc(OC)c1OC
inactive: dose: 50.0 mg/kg/injection, schedule: Q01DX005 (ip), vehicle: saline with Tween-80 93 % of control | [7] 100 % of control | dose: 100.0 mg/kg/injection, schedule: Q01DX005 (ip), vehicle: saline with Tween-80 110 % of control | [8] 96 % of control | dose: 200.0 mg/kg/injection, schedule: Q01DX005 (ip), vehicle: saline with Tween-80 93 % of control | [9] 100 % of control

C1=C(c2ccccc2)N(CCc2ccccc2)C(c2ccccc2)=CN1Cc1ccccc1
inactive: [10] 96 % of control | [11] 103 % of control | [12] 92 % of control

COC(=O)C1CCC2C3CCC4CC(O)CCC4(C)C3CCC12C (stereo not given)
inactive: [13] 110 % of control | [14] 100 % of control | [15] 95 % of control

CC1CC(C)(C)N=C(CCC2CCCC2=O)O1 (stereo not given)
inactive: [7] 104 % of control | dose: 50.0 mg/kg/injection, schedule: Q04DX003 (ip), vehicle: saline with Tween-80 95 % of control | [8] 98 % of control | dose: 100.0 mg/kg/injection, schedule: Q04DX003 (ip), vehicle: saline with Tween-80 91 % of control | [9] 100 % of control | dose: 200.0 mg/kg/injection, schedule: Q04DX003 (ip), vehicle: saline with Tween-80 96 % of control | dose: 400.0 mg/kg/injection, schedule: Q01DX009 (ip), vehicle: saline with Tween-80 100 % of control | dose: 400.0 mg/kg/injection, schedule: Q04DX003 (ip), vehicle: saline with Tween-80 91 % of control

Nc1c2c(nc3ccccc13)CCCC2
inactive: dose: 0.78 mg/kg/injection, schedule: Q04DX003 (ip), vehicle: saline 101 % of control | dose: 1.56 mg/kg/injection, schedule: Q01DX009 (ip), vehicle: saline 98 % of control | dose: 1.56 mg/kg/injection, schedule: Q04DX003 (ip), vehicle: saline 93 % of control | dose: 3.12 mg/kg/injection, schedule: Q01DX009 (ip), vehicle: saline 93 % of control | dose: 3.12 mg/kg/injection, schedule: Q04DX003 (ip), vehicle: saline 104 % of control | dose: 6.25 mg/kg/injection, schedule: Q04DX003 (ip), vehicle: saline 96 % of control | dose: 12.5 mg/kg/injection, schedule: Q04DX003 (ip), vehicle: saline 95 % of control

Nc1ncnc2nn(C3OC(CO)C(O)C3O)nc12 (stereo not given)
inactive: dose: 75.0 mg/kg/injection, schedule: Q01DX001 (ip), vehicle: saline 105 % of control | dose: 150.0 mg/kg/injection, schedule: Q01DX001 (ip), vehicle: saline 105 % of control | dose: 300.0 mg/kg/injection, schedule: Q01DX001 (ip), vehicle: saline 108 % of control

CCNC(Cc1ccccc1)c1ccco1 (stereo not given)
inactive: [16] 109 % of control | [5] 104 % of control

CCc1cc2oc(C)c(C)c2c(N=Nc2ccccc2[N+](=O)[O-])c1O
inactive: [10] 96 % of control | [11] 96 % of control | [12] 93 % of control

CCCCCCCCCC(=O)N(CCCC)CCCC
inactive: [16] 102 % of control | [5] 105 % of control | dose: 100.0 mg/kg/injection, schedule: Q04DX002 (ip), vehicle: saline 95 % of control | [6] 109 % of control | dose: 200.0 mg/kg/injection, schedule: Q04DX002 (ip), vehicle: saline 101 % of control | dose: 400.0 mg/kg/injection, schedule: Q04DX002 (ip), vehicle: saline 88 % of control

COC(=O)C(CCC#N)(CCC#N)C(C)=O
inactive: [13] 96 % of control | [14] 91 % of control | [15] 89 % of control

CCN(CC)CC(=O)N1Cc2ccccc2CCc2ccccc2C1
inactive: [1] 92 % of control

Cc1ccc(C(C)CC(=O)O)cc1 (stereo not given)
inactive: dose: 100.0 mg/kg/injection, schedule: Q01DX001 (ip), vehicle: carboxymethylcellulose (CMC) 101 % of control | dose: 200.0 mg/kg/injection, schedule: Q01DX001 (ip), vehicle: carboxymethylcellulose (CMC) 95 % of control | dose: 400.0 mg/kg/injection, schedule: Q01DX001 (ip), vehicle: carboxymethylcellulose (CMC) 93 % of control

CCCCCCCC/C=C\CCCCCCCC(=O)OCCCCCCCCCCC
inactive: dose: 100.0 mg/kg/injection, schedule: Q01DX009 (ip), vehicle: other 93 % of control | dose: 200.0 mg/kg/injection, schedule: Q01DX009 (ip), vehicle: other 94 % of control | dose: 400.0 mg/kg/injection, schedule: Q01DX009 (ip), vehicle: other 100 % of control
